Test results: patent US20250325573A1, “Anti-Cancer Saccharide-Linked Dithiocarbamate Compounds” (Anglia Ruskin University Higher Education Corporation, priority 2022, published 2025)

How the values were obtained:
Type in all cases: cell-based
A549 = test: MTT cytotoxicity assay, lung cancer cell line A549
H630 R10 = test: MTT cytotoxicity assay, colorectal cancer cell line H630 R10 (resistant to 5FU 10 μM); settings: 72 h
Protocol: (§1) The H630 WT (passage 12-21) and H630 R10 (passage 4-13) cells were seeded in 96-well plates at seeding density of 1×10^4 cells/well in Dulbecco's modified Eagle's medium (DMEM) with 10% FBS, 1 mM sodium pyruvate, 2 mM L-glutamine and 0.1 mM non-essential amino acids. Cells were incubated at 37° C., 5% CO2 and 95% relative humidity. Cells were constantly exposed to different concentrations of the tested compound in combination with 10 μM of CuCl2 for 72 h and then subjected to a standard 3-(4,5-Dimethylthiazol-2-yl)-2,5-Diphenyltetrazolium bromide (MTT) assay. The experiments were carried out in triplicates and the IC50 values were calculated (see FIG. 2).
5FU was purchased from Sigma Aldrich, Dorset, UK.

H630 WT = test: MTT cytotoxicity assay, colorectal cancer cell line H630 WT; settings: 72 h
Protocol: as §1

MDA-MB-231 = test: MTT cytotoxicity assay, breast cancer cell line MDA-MB-231
[1] = test system: colorectal cancer cell line H630 WT; test: Microscopy images of colorectal cancer cells H630 WT; settings: 500 μM, copper(II) 10 μM, 72 hours
[2] = test system: breast cancer cell line MDA-MB-231; test: Microscopy images of breast cancer cells MDA-MB-231; settings: for concentration showing apoptotic signs (shrinkage, cell detachment, membrane blebbing): 24 hours of incubation
[3] = test system: lung cancer cell line A549; test: Microscopy images of lung cancer cells A549; settings: for cytotoxicity against lung cancer cells (microscopy): with and without copper(II) 10 μM, boosted by adding copper
[4] = comparative agent as listed, no added metal named
[5] = Homo sapiens, A549, 72 h, with Cu (10 μM CuCl2)
[6] = Homo sapiens, MDA-MB-231, 72 h, with Cu (10 μM CuCl2)
[7] = Homo sapiens, MDA-MB-231, 72 h, without copper(II)
[8] = Homo sapiens, NCI-H630, with Cu (10 μM CuCl2)
[9] = Homo sapiens, NCI-H630, comparative agent as listed, no added metal named

SMILES: CCN(CC)C(=S)[S-].CCN(CC)C(=S)[S-].[Cu+2] [(DDC)2Cu, Cu(II) bis(N,N-diethyldithiocarbamate) complex, reference compound]
- IC50 (A549; comparative agent as listed, no added metal named, 72 h): 3.6 ± 0.7 µM
- IC50 (H630 R10; [4]): 4.9 ± 1.6 µM
- IC50 (H630 WT; [4]): 5.9 ± 1.1 µM

SMILES: CCN(CC)C(=S)SC1O[C@H](COC(C)=O)[C@@H](OC(C)=O)[C@H](OC(C)=O)[C@H]1OC(C)=O (stereo partly drawn) [Tetra-DDC, β-D-glucopyranose, 1-thio-, 2,3,4,6-tetraacetate 1-(N,N-diethylcarbamodithioate)]
- IC50 (A549; [5]): 53.4 ± 11.5 µM

SMILES: CCN(CC)C(=S)SC1CC(O)C(O)C(CO)O1 (stereo not shown) [DG-DDC, 2-Deoxy-glycosyl diethyldithiocarbamate]
- IC50 (A549; [5]): 2.79 ± 0.25 µM
- IC50 (A549; Homo sapiens, A549, 72 h, with Zn (ZnCl2 10 μM)): 49.6 ± 18.6 µM
- IC50 (MDA-MB-231; [6]): 3.62 ± 0.22 µM
- IC50 (MDA-MB-231; [7]): 2060 ± 54.7 µM
- IC50 (H630 R10; [8]): 5.3 ± 0.9 µM
- observation in cells (microscopy) [1]: Cu(II) bis(N,N-diethyldithiocarbamate) complex crystals
- concentration showing apoptotic signs (shrinkage, cell detachment, membrane blebbing) ([2]; with copper(II) 10 μM): 25 µM
- toxic effect compared to glycosyl diethyldithiocarbamate at similar concentrations ([2]; without copper(II), 24 hours): more toxic effect
- IC50 (H630 WT; [8]): 5.2 ± 1.7 µM
- cytotoxicity against lung cancer cells (microscopy) ([3]; 72 h): cytotoxic
- toxic effect compared to glycosyl diethyldithiocarbamate at similar concentrations ([3]; without copper(II), 24 hours): more toxic effect

SMILES: CCN(CC)C(=S)SC1O[C@H](CO)[C@@H](O[C@@H]2O[C@H](CO)[C@H](O)[C@H](O)[C@H]2O)[C@H](O)[C@H]1O (stereo partly shown) [La-DDC, Lactosyl diethyldithiocarbamate]
- IC50 (MDA-MB-231; [6]): 89.7 ± 12.6 µM

SMILES: CCN(CC)C(=S)SC1OC(CO)C(O)C(O)C1NC(C)=O (stereo not shown) [AG-DDC, 2-N-acetyl-glycosylamine diethyldithiocarbamate]
- IC50 (H630 WT; [8]): 5.8 ± 1.2 µM

SMILES: O=CC[C@@H](O)[C@H](O)[C@H](O)CO [2-deoxy-glucose, reference compound]
- features of apoptosis ([2]; 1000 μM, with copper(II) 10 μM, 24 hours): no features of apoptosis
- concentration showing slight toxicity effect (cells started to detach) ([2]; without copper(II), 24 hours): 8 mM
- cytotoxic effect (microscopy) ([3]; 1 mM, with or without copper(II), 72 h): no cytotoxic effect
- concentration showing slight toxicity effect (cells started to detach) ([3]; without copper(II), 24 hours): 8 mM

SMILES: O=c1[nH]cc(F)c(=O)[nH]1 [Example 5FU, fluorouracil, reference compound]
- IC50 (H630 R10; [9]): 462 ± 8 µM
- IC50 (H630 WT; [9]): 4.6 ± 1.6 µM

SMILES: CCN(CC)C(=S)SC1OC[C@@H](O)[C@H](O)[C@H]1O (stereo partly shown) [XY-DDC, Xylosyl diethyldithiocarbamate]
- IC50 (H630 WT; [8]): 6.9 ± 2.6 µM

SMILES: CCN(CC)C(=S)SC1O[C@H](CO)[C@@H](O)[C@H](O)[C@H]1O (stereo in doubt) [Ga-DDC, Galactosyl diethyldithiocarbamate]
- IC50 (MDA-MB-231; with Cu (10 μM CuCl2), 72 h): 17.7 ± 8.2 µM

SMILES: CCN(CC)C(=S)SC1O[C@H](CO)[C@@H](O)[C@H](O)[C@H]1O (stereo partly shown) [G-DDC, Glycosyl diethyldithiocarbamate]
- IC50 (A549; [5]): 95.9 ± 21.3 µM
- IC50 (MDA-MB-231; [7]): 2180 ± 356 µM
- IC50 (MDA-MB-231; with Cu (10 μM CuCl2), 72 h): 348 ± 44.7 µM
- concentration showing apoptotic signs (shrinkage, cell detachment, membrane blebbing) ([2]; with copper(II) 10 μM): 250 µM
- concentration showing signs of apoptosis (shrinkage, cell detachment) ([2]; without copper(II), 24 hours): 8 mM
- concentration showing slight toxicity effect (cells started to detach) ([2]; without copper(II), 24 hours): 4 mM
- IC50 (H630 WT; [8]): 127 ± 13.2 µM
- cytotoxicity against lung cancer cells (microscopy) ([3]; 72 h): cytotoxic
- concentration showing signs of apoptosis (shrinkage, cell detachment) ([3]; without copper(II), 24 hours): 8 mM
- concentration showing slight toxicity effect (cells started to detach) ([3]; without copper(II), 24 hours): 4 mM

SMILES: CCN(CC)C(=S)SC1O[C@H](CO)[C@@H](O)[C@H](O)[C@@H]1O (stereo partly shown) [Ma-DDC, Mannosyl diethyldithiocarbamate]
- IC50 (MDA-MB-231; [6]): 78.6 ± 12.6 µM

SMILES: CCN(CC)C(=S)SSC(=S)N(CC)CC [DS, disulfiram, reference compound]
- IC50 (MDA-MB-231; [7]): > 8000 µM
